According to publication PMC9555642 (PLoS ONE, 2022):

Legend:
HDAC10 = target: T1, HDAC10 (Homo sapiens, UniProt Q969S8); assay: HDAC enzymatic activity (Eurofins); format: biochemical; settings: Class IIB; ACY-1083 mean of two separate measurements, Ricolinostat and Tubastatin A one measurement
T1 construct: purchased Eurofins Pharma Discovery Services 2662
T1 sequence (Q969S8 1-669): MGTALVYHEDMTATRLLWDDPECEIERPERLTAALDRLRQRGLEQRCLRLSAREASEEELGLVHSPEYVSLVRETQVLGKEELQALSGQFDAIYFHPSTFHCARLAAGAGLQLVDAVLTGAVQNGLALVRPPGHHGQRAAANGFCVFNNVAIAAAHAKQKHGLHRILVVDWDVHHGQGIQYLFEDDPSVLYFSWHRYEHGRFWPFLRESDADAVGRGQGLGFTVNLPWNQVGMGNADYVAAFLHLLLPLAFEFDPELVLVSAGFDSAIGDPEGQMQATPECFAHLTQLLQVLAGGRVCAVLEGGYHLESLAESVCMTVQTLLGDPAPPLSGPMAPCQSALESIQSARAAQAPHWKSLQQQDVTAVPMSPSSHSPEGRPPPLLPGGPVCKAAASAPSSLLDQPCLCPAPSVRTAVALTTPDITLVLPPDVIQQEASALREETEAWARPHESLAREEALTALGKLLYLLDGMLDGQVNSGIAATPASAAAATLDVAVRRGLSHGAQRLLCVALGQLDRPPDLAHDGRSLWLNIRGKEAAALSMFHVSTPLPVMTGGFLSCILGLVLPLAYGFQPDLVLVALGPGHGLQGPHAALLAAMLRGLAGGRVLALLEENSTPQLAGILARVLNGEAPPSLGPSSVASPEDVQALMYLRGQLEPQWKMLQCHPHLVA

cyclooxygenase 2 (COX2) = target: T2, cyclooxygenase 2 (COX2) (Homo sapiens, UniProt P35354); assay: Secondary pharmacology panel (Eurofins); format: biochemical
T2 construct: purchased Eurofins Pharma Discovery Services
T2 sequence (P35354 18-604): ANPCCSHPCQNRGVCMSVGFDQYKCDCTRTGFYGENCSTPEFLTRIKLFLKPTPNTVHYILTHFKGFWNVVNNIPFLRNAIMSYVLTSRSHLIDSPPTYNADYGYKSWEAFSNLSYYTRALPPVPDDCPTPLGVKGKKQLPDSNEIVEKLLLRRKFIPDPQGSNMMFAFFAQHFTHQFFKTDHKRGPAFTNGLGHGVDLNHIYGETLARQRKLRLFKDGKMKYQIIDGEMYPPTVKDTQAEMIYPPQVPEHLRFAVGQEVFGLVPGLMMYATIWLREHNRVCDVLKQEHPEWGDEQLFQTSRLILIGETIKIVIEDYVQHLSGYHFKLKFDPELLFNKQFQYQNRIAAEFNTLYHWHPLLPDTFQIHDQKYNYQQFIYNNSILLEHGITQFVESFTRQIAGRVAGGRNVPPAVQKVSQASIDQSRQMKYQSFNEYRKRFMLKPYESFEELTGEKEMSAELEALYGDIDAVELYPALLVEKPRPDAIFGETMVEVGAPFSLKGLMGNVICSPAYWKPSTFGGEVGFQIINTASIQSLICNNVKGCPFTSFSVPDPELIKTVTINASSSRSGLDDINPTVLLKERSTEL
Method: Second pharmacology screening was performed at Eurofins Pharma Discovery Services in a panel of 190 in vitro radioligand binding and enzyme assays covering a diverse set of enzymes, receptors, ion channels, and transporters.

IKs = target: T3, IKs (Homo sapiens, UniProt P51787); assay: Cardiovascular ion channel panel, SyncroPatch 384PE patch clamp; format: cell-based; settings: CHO K1 cell line, room temperature, 6 point cumulative assay
T3 construct: expressed in transfected cells; host or cells: Chinese hamster ovary K1 cell line

COPD HBEC ALI cultures = assay: Paracellular permeability (FITC-dextran) in unchallenged ALI cultures; format: cell-based, human; settings: 10 μM basolaterally for eight days, no challenge, four COPD donors, p = 0.0023
Method: Passage one cells were seeded into T75 cell culture flasks (250,000 cells/flask) and expanded in PneumaCult ExPlus medium (StemCell Technologies, Vancouver, Canada) at 37°C, 5% CO2. Once cells reached 70% confluency, they were dissociated with TrypLE Express dissociation media (Thermo Fisher Scientific, Waltham, USA) and frozen at -150°C in ExPlus with 10% DMSO. Passage two cells were thawed and seeded (20,000 cells/membrane) into 24-well HTS Transwell plates (Corning, Wiesbaden, Germany) for air-liquid interface (ALI) culturing. Cells were expanded in ExPlus medium until >50% confluent (four days). Apical medium was then removed, and basolateral medium was replaced with PneumaCult ALI medium (StemCell Technologies). Medium was changed three times per week during a four-week long differentiation phase.
The paracellular permeability was determined by using fluorescein isothiocyanate labeled 4kD-dextran (Sigma-Aldrich, St. Louis, USA). 18 hours after addition of 0.2 mg FITC-dextran in 200 μL medium to the apical side of the ALI cultures, the fluorescence in the basolateral medium was measured using PHERAstar FSX (excitation 485 nm and emission 520 nm) (BMG LABTECH, Ortenberg, Germany). The time point was chosen for optimal window in the assays as well as practical reasons and has been kept consistent in between different stimulations throughout this work. […]

[1] = test system: healthy HBEC at ALI cultures; assay: TEER in healthy HBEC ALI cultures, TNF challenge; format: cell-based, human; settings: TNF-challenged healthy HBEC, p = 0.0187
[2] = test system: deacetylation of α-tubulin; set-up: method as in PMID 28267067; settings: read-out: cell potency (IC50), inhibition of deacetylation of α-tubulin; cited from earlier work

ACY-1083
IC50 (HDAC10): 18.5 µM
IC50 (cyclooxygenase 2 (COX2)): 6.48 µM
activity on IKs (IKs): > 30 µM
passage of FITC-dextran (paracellular permeability) (COPD HBEC ALI cultures): significantly reduced
TEER [1]: reversed this decrease
IC50 [2]: 0.03 to 0.1 µM
